A short description of the data set: previous phase 1 study, single and multiple dose cohorts. The format is in vivo, human. Conditions: doses used in this study (20, 40, 60, 80 mg QD, oral); preliminary results from 6 multiple dose cohorts (up to 100 mg) and 7 single dose cohorts (up to 125 mg).

Take `Cc1cc(OCP(=O)(O)O)cc(C)c1Cc1ccc(O)c(Cc2ccccc2)c1` [Compound 1]: the lipid plasma levels entry is listed as “lowering of lipid plasma levels” and the safety entry was “without safety issues”.
